{"source": "paper PMC8371461", "about": "(Frontiers in Pharmacology, 2021)", "type_in_all_cases": "binding", "key": {"[1]": {"molecular_target": "T1, ABL1(Y253F)-phosphorylated (Homo sapiens, UniProt P00519, Y253F)", "T1 construct": "purchased DiscoverX (KINOMEscan)", "test": "kinome scan", "settings": "10 µM"}, "ABL2": {"molecular_target": "T2, ABL2 (Homo sapiens, UniProt P42684)", "T2 construct": "purchased DiscoverX (KINOMEscan)", "test": "kinome scan", "settings": "10 µM"}, "BRAF(V600E)": {"molecular_target": "T3, BRAF(V600E) (Homo sapiens, UniProt P15056, V600E)", "T3 construct": "purchased DiscoverX (KINOMEscan)", "test": "kinome scan", "settings": "10 µM"}, "BRSK1": {"molecular_target": "T4, BRSK1 (Homo sapiens, UniProt Q8TDC3)", "T4 construct": "purchased DiscoverX (KINOMEscan)", "test": "kinome scan", "settings": "10 µM"}, "CAMK2B": {"molecular_target": "T5, CAMK2B (Homo sapiens, UniProt Q13554)", "T5 construct": "purchased DiscoverX (KINOMEscan)", "T5 sequence (Q13554 whole entry)": "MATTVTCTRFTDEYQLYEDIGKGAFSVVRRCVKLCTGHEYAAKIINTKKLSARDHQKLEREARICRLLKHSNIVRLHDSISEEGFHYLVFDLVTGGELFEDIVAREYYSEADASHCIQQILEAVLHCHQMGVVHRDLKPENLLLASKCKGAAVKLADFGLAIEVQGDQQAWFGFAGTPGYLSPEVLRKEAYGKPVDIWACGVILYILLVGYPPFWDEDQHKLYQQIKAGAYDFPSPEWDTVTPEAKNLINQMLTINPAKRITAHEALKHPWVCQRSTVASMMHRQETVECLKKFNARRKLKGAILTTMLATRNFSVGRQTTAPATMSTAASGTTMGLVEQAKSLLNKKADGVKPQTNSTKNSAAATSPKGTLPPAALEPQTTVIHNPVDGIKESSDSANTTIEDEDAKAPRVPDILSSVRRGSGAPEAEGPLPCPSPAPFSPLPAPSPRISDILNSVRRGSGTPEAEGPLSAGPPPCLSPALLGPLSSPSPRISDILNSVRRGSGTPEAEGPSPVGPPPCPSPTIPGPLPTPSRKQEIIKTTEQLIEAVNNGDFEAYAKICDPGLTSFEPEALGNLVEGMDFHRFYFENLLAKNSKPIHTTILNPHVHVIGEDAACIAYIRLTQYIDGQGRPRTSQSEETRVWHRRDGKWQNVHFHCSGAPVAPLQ", "test": "kinome scan", "settings": "10 µM"}, "CSNK2A2": {"molecular_target": "T6, CSNK2A2 (Homo sapiens, UniProt P19784)", "T6 construct": "purchased DiscoverX (KINOMEscan)", "test": "kinome scan", "settings": "10 µM"}, "DYRK1B": {"molecular_target": "T7, DYRK1B (Homo sapiens, UniProt Q9Y463)", "T7 construct": "purchased DiscoverX (KINOMEscan)", "test": "kinome scan", "settings": "10 µM"}, "EGFR(S752-I759del)": {"molecular_target": "T8, EGFR(S752-I759del) (Homo sapiens, UniProt P00533, DEL752-759)", "T8 construct": "purchased DiscoverX (KINOMEscan)", "test": "kinome scan", "settings": "10 µM"}, "EPHB4": {"molecular_target": "T9, EPHB4 (Homo sapiens, UniProt P54760)", "T9 construct": "purchased DiscoverX (KINOMEscan)", "test": "kinome scan", "settings": "10 µM"}, "ICK": {"molecular_target": "T10, ICK (Homo sapiens, UniProt Q9UPZ9)", "T10 construct": "purchased DiscoverX (KINOMEscan)", "T10 sequence (Q9UPZ9 whole entry)": "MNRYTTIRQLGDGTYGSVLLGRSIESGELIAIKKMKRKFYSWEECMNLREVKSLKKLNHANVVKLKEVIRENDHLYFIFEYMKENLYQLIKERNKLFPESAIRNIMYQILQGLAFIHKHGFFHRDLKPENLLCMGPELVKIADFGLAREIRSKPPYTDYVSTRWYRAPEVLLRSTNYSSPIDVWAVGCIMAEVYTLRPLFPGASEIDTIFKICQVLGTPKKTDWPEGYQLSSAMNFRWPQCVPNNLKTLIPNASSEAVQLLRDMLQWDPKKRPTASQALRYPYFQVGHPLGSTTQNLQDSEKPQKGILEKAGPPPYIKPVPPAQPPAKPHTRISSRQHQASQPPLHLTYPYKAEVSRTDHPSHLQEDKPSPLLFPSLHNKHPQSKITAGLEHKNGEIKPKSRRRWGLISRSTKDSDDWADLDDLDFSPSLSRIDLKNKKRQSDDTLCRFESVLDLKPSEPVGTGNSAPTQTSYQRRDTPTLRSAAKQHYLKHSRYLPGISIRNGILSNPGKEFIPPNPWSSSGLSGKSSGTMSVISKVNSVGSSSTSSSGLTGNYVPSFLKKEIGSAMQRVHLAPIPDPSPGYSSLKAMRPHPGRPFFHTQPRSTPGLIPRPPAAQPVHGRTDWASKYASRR", "test": "kinome scan", "settings": "10 µM"}, "MAP4K3": {"molecular_target": "T11, MAP4K3 (Homo sapiens, UniProt Q8IVH8)", "T11 construct": "purchased DiscoverX (KINOMEscan)", "test": "kinome scan", "settings": "10 µM"}, "MAPKAPK2": {"molecular_target": "T12, MAPKAPK2 (Homo sapiens, UniProt P49137)", "T12 construct": "purchased DiscoverX (KINOMEscan)", "test": "kinome scan", "settings": "10 µM"}, "NIM1": {"molecular_target": "T13, NIM1 (Homo sapiens, UniProt Q8IY84)", "T13 construct": "purchased DiscoverX (KINOMEscan)", "test": "kinome scan", "settings": "10 µM"}, "PAK2": {"molecular_target": "T14, PAK2 (Homo sapiens, UniProt Q13177)", "T14 construct": "purchased DiscoverX (KINOMEscan)", "test": "kinome scan", "settings": "10 µM"}, "PIK3CB": {"molecular_target": "T15, PIK3CB (Homo sapiens, UniProt P42338)", "T15 construct": "purchased DiscoverX (KINOMEscan)", "T15 sequence (P42338 whole entry)": "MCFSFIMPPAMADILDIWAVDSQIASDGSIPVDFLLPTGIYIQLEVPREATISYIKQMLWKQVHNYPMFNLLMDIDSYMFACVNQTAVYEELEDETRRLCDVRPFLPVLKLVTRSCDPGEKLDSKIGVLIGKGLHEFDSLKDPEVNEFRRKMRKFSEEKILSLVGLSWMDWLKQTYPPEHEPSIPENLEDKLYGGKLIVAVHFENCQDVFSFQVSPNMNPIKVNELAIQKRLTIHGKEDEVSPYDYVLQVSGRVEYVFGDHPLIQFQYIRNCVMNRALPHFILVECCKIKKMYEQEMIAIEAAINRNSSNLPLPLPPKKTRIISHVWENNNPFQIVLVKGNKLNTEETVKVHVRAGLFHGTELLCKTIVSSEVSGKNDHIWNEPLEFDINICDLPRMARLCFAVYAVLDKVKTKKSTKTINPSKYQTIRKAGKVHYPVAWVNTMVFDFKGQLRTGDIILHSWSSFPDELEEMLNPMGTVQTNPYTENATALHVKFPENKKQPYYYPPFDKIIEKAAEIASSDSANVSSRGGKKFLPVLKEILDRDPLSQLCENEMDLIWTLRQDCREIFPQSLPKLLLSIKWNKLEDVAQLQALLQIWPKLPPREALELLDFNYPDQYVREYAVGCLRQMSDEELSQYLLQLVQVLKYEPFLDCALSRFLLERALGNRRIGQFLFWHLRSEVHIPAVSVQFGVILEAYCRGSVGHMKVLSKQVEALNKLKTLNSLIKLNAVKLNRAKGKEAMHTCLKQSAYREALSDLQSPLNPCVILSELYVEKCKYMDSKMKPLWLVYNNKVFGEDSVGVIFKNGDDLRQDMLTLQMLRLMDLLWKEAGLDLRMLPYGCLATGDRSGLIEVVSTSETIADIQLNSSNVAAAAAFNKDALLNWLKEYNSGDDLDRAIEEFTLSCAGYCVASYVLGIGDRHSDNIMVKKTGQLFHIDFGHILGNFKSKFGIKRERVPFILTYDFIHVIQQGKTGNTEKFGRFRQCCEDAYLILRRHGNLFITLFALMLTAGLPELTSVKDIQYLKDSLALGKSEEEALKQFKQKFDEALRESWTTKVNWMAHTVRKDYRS", "test": "kinome scan"}, "PKN2": {"molecular_target": "T16, PKN2 (Homo sapiens, UniProt Q16513)", "T16 construct": "purchased DiscoverX (KINOMEscan)", "T16 sequence (Q16513 whole entry)": "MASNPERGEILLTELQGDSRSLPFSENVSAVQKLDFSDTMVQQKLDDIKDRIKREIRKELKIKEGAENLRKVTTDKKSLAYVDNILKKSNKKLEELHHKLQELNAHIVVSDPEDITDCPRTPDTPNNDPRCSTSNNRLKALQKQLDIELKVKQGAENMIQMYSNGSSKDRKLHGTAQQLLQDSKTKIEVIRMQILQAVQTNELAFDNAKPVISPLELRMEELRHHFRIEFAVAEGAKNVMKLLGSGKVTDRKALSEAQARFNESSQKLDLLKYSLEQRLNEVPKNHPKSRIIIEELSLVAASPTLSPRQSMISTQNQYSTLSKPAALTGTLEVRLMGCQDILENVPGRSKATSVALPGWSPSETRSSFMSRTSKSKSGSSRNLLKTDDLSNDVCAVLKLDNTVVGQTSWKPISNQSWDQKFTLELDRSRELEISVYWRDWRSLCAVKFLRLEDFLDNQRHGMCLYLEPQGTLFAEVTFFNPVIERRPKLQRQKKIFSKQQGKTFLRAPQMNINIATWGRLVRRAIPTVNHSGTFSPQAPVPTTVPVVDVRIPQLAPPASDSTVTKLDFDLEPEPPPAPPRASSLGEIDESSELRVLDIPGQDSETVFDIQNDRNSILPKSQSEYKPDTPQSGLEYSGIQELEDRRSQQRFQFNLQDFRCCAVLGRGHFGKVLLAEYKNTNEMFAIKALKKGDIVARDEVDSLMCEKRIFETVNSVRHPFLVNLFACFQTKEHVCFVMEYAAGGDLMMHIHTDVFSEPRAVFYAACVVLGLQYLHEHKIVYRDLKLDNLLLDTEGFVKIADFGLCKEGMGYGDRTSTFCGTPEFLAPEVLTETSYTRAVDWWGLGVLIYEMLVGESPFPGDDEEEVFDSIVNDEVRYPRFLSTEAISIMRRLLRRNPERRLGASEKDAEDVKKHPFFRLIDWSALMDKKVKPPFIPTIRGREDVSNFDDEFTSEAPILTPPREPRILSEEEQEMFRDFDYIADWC", "test": "kinome scan", "settings": "10 µM"}, "PKNB(M.tuberculosis)": {"molecular_target": "T17, PKNB(M.tuberculosis) (Mycobacterium tuberculosis, UniProt P9WI81)", "T17 construct": "purchased DiscoverX (KINOMEscan)", "T17 sequence (P9WI81 whole entry)": "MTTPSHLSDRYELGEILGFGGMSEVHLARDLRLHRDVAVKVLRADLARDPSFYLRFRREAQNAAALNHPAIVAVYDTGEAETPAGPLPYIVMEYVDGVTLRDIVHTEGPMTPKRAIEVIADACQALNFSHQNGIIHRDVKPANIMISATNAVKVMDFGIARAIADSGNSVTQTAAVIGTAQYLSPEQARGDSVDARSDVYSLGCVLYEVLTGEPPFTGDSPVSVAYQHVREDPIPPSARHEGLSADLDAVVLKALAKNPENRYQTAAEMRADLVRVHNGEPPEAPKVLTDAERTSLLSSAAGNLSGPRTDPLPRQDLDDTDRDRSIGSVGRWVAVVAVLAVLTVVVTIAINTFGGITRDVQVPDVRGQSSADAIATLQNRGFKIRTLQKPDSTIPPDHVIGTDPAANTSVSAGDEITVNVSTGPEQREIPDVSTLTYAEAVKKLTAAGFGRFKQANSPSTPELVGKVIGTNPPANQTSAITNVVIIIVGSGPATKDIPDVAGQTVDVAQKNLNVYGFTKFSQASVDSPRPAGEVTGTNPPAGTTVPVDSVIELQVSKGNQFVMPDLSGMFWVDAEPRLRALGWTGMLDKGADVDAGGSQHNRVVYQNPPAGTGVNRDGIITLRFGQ", "test": "kinome scan", "settings": "10 µM"}, "TIE2": {"molecular_target": "T18, TIE2 (Homo sapiens, UniProt Q02763)", "T18 construct": "purchased DiscoverX (KINOMEscan)", "T18 sequence (Q02763 23-1124)": "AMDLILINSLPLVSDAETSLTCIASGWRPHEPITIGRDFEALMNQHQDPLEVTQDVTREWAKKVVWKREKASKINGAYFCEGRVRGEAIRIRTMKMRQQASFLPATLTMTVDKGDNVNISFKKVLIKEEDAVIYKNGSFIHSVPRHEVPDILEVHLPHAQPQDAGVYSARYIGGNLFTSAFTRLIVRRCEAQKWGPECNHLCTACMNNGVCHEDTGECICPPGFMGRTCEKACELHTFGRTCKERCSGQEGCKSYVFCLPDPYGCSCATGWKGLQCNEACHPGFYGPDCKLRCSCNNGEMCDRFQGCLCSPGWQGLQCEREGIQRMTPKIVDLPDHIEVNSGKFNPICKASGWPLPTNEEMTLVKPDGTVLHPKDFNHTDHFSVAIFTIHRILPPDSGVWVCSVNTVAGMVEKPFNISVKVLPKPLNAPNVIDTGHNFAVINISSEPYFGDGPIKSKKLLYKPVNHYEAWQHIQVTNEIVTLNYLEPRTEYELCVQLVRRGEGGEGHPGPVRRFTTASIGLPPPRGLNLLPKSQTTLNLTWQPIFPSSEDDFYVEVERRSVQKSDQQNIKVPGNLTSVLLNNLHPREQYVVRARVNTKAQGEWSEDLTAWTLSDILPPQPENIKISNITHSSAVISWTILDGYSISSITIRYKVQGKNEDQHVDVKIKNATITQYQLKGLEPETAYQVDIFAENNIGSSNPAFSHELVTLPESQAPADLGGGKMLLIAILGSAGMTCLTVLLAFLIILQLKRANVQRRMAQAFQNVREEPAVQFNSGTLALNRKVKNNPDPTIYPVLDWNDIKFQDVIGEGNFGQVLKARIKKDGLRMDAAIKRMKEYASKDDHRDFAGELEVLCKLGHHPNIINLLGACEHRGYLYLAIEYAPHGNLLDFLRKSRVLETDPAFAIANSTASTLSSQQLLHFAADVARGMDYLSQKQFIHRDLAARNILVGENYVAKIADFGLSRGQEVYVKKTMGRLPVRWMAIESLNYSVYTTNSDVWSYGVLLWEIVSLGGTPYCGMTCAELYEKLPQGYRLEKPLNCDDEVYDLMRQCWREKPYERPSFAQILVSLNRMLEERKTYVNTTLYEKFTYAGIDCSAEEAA", "test": "kinome scan", "settings": "10 µM"}, "[2]": {"molecular_target": "T19, TYK2(JH1domain-catalytic) (Homo sapiens, UniProt P29597)", "T19 construct": "TYK2(JH1domain-catalytic); purchased DiscoverX (KINOMEscan)", "test": "kinome scan", "settings": "10 µM"}, "ZAK": {"molecular_target": "T20, ZAK (Homo sapiens, UniProt Q9NYL2)", "T20 construct": "purchased DiscoverX (KINOMEscan)", "test": "kinome scan", "settings": "10 µM"}, "GAK": {"molecular_target": "T21, GAK (Homo sapiens, UniProt O14976)", "T21 construct": "T7 phage fusion (kinase-tagged phage); purchased DiscoverX; host or cells: BL21-derived E. coli (T7 phage)", "T21 sequence (O14976 1-1311)": "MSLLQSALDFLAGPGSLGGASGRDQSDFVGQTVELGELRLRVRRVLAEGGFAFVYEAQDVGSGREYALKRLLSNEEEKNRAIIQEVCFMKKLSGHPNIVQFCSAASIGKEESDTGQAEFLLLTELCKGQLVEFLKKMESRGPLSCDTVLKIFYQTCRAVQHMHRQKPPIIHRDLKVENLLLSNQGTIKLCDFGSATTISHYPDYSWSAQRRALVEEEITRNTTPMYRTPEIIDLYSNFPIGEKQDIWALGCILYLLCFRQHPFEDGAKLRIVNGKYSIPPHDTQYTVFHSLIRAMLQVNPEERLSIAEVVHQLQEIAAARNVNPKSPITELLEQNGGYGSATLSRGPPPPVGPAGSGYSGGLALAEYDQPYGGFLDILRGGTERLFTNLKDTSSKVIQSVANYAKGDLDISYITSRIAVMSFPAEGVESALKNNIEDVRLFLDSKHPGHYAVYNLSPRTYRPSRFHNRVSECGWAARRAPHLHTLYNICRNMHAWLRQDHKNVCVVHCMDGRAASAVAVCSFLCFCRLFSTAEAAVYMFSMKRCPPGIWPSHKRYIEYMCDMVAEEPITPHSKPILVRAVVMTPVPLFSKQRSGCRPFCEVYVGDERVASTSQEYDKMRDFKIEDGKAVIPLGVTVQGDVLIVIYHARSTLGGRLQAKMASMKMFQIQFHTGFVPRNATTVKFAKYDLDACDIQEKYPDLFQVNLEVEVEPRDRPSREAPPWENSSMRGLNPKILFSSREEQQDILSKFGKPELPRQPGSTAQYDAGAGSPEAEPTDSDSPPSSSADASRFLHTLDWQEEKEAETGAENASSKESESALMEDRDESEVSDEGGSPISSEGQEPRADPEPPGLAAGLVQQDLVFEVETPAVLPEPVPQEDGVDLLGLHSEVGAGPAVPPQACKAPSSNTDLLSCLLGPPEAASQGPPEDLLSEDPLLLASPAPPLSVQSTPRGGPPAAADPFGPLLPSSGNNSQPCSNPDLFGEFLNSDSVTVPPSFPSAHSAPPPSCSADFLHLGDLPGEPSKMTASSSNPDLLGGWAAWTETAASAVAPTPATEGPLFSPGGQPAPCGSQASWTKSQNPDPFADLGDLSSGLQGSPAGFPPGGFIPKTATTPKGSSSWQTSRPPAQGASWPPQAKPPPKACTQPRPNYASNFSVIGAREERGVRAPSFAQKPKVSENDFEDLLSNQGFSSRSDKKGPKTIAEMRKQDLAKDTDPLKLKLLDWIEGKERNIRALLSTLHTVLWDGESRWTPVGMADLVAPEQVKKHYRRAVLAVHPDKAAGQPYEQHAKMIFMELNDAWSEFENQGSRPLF", "test": "Kd select analysis (DiscoverX)", "protocol": "Hits are identified by an ultra-sensitive quantitative PCR detecting the specific DNA tag linked to each kinase (Supplementary Figure S2). The drug is used at a concentration of 10 µM and results are expressed as the percentage of signal (kinase PCR detection) with respect to DMSO control conditions. Thirteen hits were identified, with a signal reduction ranging from 0 to 27% (Table 3). Full raw data are presented in Supplementary Table S4. Interactions between 0 and 20% of reduction were considered to be the most significant ones. […] A sub-micromolar affinity (Kd<1 µM) was only seen with two PIKs (PIP4K2C, PI4KB) and GAK (Table 4). Inhibitions curves from these compounds are shown in Supplementary Figure S3."}}, "note": "Read-outs that look alike come from different tables or passages of the source."}
{"compound": "Nc1ccc(N=Nc2ccccc2)c(N)n1", "note": "[phenazopyridine, 2,6-diamino-3-(phenylazo)pyridine]", "values": [{"measurement": "kinase inhibition", "setting": "[1]", "result": 90}, {"measurement": "kinase inhibition", "setting": "ABL2", "result": 96}, {"measurement": "kinase inhibition", "setting": "BRAF(V600E)", "result": 92}, {"measurement": "kinase inhibition", "setting": "BRSK1", "result": 62}, {"measurement": "kinase inhibition", "setting": "CAMK2B", "result": 100}, {"measurement": "kinase inhibition", "setting": "CSNK2A2", "result": 63}, {"measurement": "remaining binding (% of control)", "setting": "DYRK1B", "result": 69}, {"measurement": "kinase inhibition", "setting": "EGFR(S752-I759del)", "result": 97}, {"measurement": "kinase inhibition", "setting": "EPHB4", "result": 95}, {"measurement": "kinase inhibition", "setting": "ICK", "result": 90}, {"measurement": "kinase inhibition", "setting": "MAP4K3", "result": 74}, {"measurement": "kinase inhibition", "setting": "MAPKAPK2", "result": 86}, {"measurement": "kinase inhibition", "setting": "NIM1", "result": 100}, {"measurement": "kinase inhibition", "setting": "PAK2", "result": 97}, {"measurement": "remaining binding (% of control)", "setting": "PIK3CB; 10 µM", "result": 22}, {"measurement": "remaining binding at 10 µM", "setting": "PIK3CB; read-out: % Of control", "result": 22, "unit": "%"}, {"measurement": "kinase inhibition", "setting": "PKN2", "result": 100}, {"measurement": "remaining binding (% of control)", "setting": "PKNB(M.tuberculosis)", "result": 96}, {"measurement": "kinase inhibition", "setting": "TIE2", "result": 98}, {"measurement": "remaining binding (% of control)", "setting": "[2]", "result": 100}, {"measurement": "kinase inhibition", "setting": "ZAK", "result": 100}, {"measurement": "Kd", "setting": "GAK; Phenazopyridine Kd (nM)", "result": 760, "unit": "nM"}, {"measurement": "Kd", "setting": "GAK; sub-micromolar affinity, read-out: Kd", "result": "< 1000", "unit": "nM"}]}
